What was measured:
[1] = rat predicted hepatic clearance (hepatic microsomes); type: in vitro ADME
Procedure: Intrinsic clearance: Human or rat hepatic microsomes (0.5 mg/mL) and 1 µM test compound were incubated in 100 mM potassium phosphate pH 7.4 buffer with 3 mM MgCl2 at 37 °C with constant shaking. After a 5 min preincubation, the reaction was initiated by the addition of NADPH (1 mM). At selected time intervals (0, 3, 7, 15, 25, and 45 min), aliquots were taken and subsequently placed into a 96-well plate containing cold acetonitrile with internal standard (50 ng/mL carbamazepine). Plates were then centrifuged at 3000 rcf (4 °C) for 10 min, and the supernatant was transferred to a separate 96-well plate and diluted 1:1 with water for LC/MS/MS analysis. The in vitro half-life ( 1/2, min, Eq. 1), intrinsic clearance (CLint, mL/min/kg, Eq. 2), and subsequent predicted hepatic clearance (CLhep, mL/min/kg, Eq. 3) was determined employing the […]
where k represents the slope from linear regression analysis of the natural log percent remaining of a test compound as a function of incubation time […]
(2) CLint = in vitroT1/2 x mg microsomes x gram liver x kg body wt ascale-up factors: of 20 (human) or 45 (rat) […]
where Qh (hepatic blood flow, mL/min/kg) is 21 (human) or 70 (rat).
LC/MS/MS Bioanalysis of Samples from Plasma Protein Binding and Intrinsic Clearance […]
Samples were analyzed on a Thermo Electron TSQ Quantum Ultra triple quad mass spectrometer (San Jose, CA) via electrospray ionization (ESI) with two Themo Electron Accella pumps (San Jose, CA), and a Leap Technologies CTC PAL autosampler (Carrboro, NC). Analytes were separated by gradient elution on a dual column system with two Thermo Hypersil Gold (2.1 x 30 mm, 1.9 µm) columns (San Jose, CA) thermostated at 40 °C. HPLC mobile phase A was 0.1% formic acid in water and mobile phase B was 0.1% formic acid in acetonitrile. The gradient started […]
for 0.2 min; returned to 10% B in 0.1 min. The total run time was 1.3 min and the HPLC flow rate was 0.8 mL/min. While pump 1 ran the gradient method, pump 2 equilibrated the alternate column isocratically at 10% B. Compound optimization, data collection, and processing was performed using Thermo Electron's QuickQuan software (v2.3) and Xcalibur (v2.0.7 SP1).

[2] = rat plasma protein binding (equilibrium dialysis); type: in vitro ADME; settings: pH 7.4, read-out: rat plasma fu
Procedure: In vitro Plasma protein binding and Brain homogenate binding: Determination of fraction unbound (f u) in plasma was conducted in vitro via equilibrium dialysis using HTDialysis (HTD) membrane plates. The top half of the plate was filled with 100 uL of Dubelco’s Phosphate Buffered Saline, pH 7.4 (DPBS). Compounds were diluted into plasma from each species (5 µM final concentration), which was aliquoted in triplicate to the ‘bottom half’ of the prepared HTD plate wells. The HTD plate was sealed and incubated for 6 hours at 37 °C. Following incubation, each well (both top and bottom halves) were transferred (20 µL) to the corresponding wells of a 96-shallow-well (V-bottom) plate. The daughter plates were then matrix-matched (DPBS side wells received equal volume of plasma, and plasma side wells received equal volume of DPBS), and extraction solution (120 µL; acetonitrile containing 50 nM carbamazepine as IS) was added to all wells of both daughter plates to precipitate protein and extract test article. The plates were then sealed and centrifuged (3500 rcf) for 10 minutes at ambient temperature. Supernatant (60 µL) from each well of the daughter plates was then transferred to the corresponding wells of new daughter plates (96-shallow-well, V bottom) containing water (Milli-Q, 60 µL/well), and the plates were sealed in preparation for LC-MS/MS analysis (see LC-MS/MS analysis method below).
The unbound fraction (f u) was calculated following the equation below, and mean values for each species were calculated from 3 replicates. […]
Fraction unbound for both plasma and brain samples was determined using Equation 4.
Equation 4 Determination of fraction unbound in plasma. […]

[3] = target: T1, TREK-2 (Homo sapiens, UniProt P57789); assay: TREK-2 thallium flux assay (hTREK-2/HEK); type: cell-based; parameters: expressed in transfected cells; host or cells: HEK293; settings: for Emax: % activation relative to 10 µM BL-1249; for Fold TREK-2: TREK-2 preference over TREK-1, thallium flux
T1 sequence (P57789 1-538): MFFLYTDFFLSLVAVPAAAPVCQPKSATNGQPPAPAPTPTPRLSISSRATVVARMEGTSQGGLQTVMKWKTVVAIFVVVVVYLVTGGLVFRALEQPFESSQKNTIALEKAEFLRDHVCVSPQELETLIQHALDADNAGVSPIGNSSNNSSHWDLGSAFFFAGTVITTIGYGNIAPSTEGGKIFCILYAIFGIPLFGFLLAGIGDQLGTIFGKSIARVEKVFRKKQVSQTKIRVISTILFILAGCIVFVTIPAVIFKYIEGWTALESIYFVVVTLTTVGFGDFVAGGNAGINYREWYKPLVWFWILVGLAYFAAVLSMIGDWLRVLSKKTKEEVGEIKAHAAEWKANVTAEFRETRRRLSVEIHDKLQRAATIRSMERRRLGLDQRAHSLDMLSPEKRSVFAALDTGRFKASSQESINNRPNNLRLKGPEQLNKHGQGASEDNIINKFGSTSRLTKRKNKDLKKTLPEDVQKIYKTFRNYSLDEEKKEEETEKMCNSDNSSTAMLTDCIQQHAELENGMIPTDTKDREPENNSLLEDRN
Procedure: Procedures for Biological Experiments
TREK-1 and TREK-2 thallium flux assay protocol […]
HEK293 cells stably expressing human TREK-2 (hTREK-2/HEK) were constructed at Ono. hTREK-1/CHO or hTREK-2/HEK were plated in 384-well plates at a density of 1.0x10^4 cells/well or 2.0x10^4 cells/well, respectively, and cultured overnight. After the wash by HBSS + 20 mM HEPES buffer, cells were loaded with Thallos dye for 1 hour at room temperature. After the wash […]
dissolved with HBSS + 20mM HEPES buffer were added to each well. After 10 minutes incubation at room temperature, thallium stimulus buffer were added to each well and the fluorescent intensity are measured by Panoptic. The final thallium concentration was 0.36 mM in […]
TREK-1 or 0.24 mM in TREK-2, respectively. […]

Row | SMILES | rat CLhep (predicted hepatic clearance) [1] [mL/min/kg] | fraction unbound at 6 h, 5 µM [2] | EC50 [3] [nM] | Emax [3] [%] | Fold TREK-2 [3] [fold]
1 | CS(=O)(=O)Nc1ccc(C(=O)NCc2ccc(Cl)cc2Cl)cc1 [Compound 13] | 17.4 | 0.027 | 3200 | 155 | ~3
2 | O=C(NCc1ccc(Br)cc1Cl)c1ccc(-c2ncn[nH]2)cc1 [Compound 14a] |  |  | 730 | 183 | 
3 | Cc1cc(OC(F)(F)F)ccc1CNC(=O)c1ccc2ncnn2c1 [Compound 19a] | 5.7 | 0.075 | 150 | 160 | 25.3
4 | O=C(NCc1ccc(OC(F)(F)F)cc1F)c1ccc2ncnn2c1 [Compound 19b] | 2.9 | 0.075 | 300 | 184 | 9.3

From article PMC11887051, “Discovery of ONO-2920632 (VU6011887): A Highly Selective and CNS Penetrant TREK-2 (TWIK-Related K+ Channel 2) Preferring Activator In Vivo Tool Compound” (ACS Chemical Neuroscience, 2025)
